Assay results published in US11806342B2, “Diiodohydroxyquinoline for the treatment of clostridium difficile infection” (Purdue Research Foundation, priority 2019, dated 2023).

Experiments:
Assay type in all cases: cell-based, Clostridium difficile
[1] = tested on: C. difficile I6; test: Checkerboard assay, DIHQ with metronidazole or vancomycin
Method: (§1) Interactions between diiodohydroxyquinoline and the anticlostridial drugs (metronidazole and vancomycin) against Clostridium difficile clinical isolates. […] The fractional inhibitory concentration index (ΣFIC) was calculated for each interaction. Interactions where the ΣFIC index was ≤0.5 were categorized as synergistic (SYN).

[2] = tested on: C. difficile ATCC 9689; test: as above
Method: as §1

[3] = tested on: C. difficile ATCC 43255; test: Toxin A and B production inhibition, ELISA; settings: C. difficile ATCC 43255, ¼×MIC and ½×MIC
Method: (§2) To investigate DIHQs toxin production inhibitory activity, toxin A and toxin B levels were measured as described previously. […] An aliquot from each tube was diluted and plated on BHIS agar plates and incubated anaerobically at 37° C. for 24 hours to detect the bacterial count. The total concentration of C. difficile toxin A and B was measured in the supernatant of each tube using enzyme linked immunosorbent assay (ELISA) kit (tgc BIOMICS, Dunwoody, GA) following the manufacturer's instructions. The (OD450-OD620) values, corresponding to the toxin concentration, were measured for DIHQ and control drugs.

[4] = tested on: C. difficile ATCC BAA-1870; test: Toxin A and B production inhibition, ELISA; settings: C. difficile ATCC BAA-1870, ¼×MIC and ½×MIC
Method: as §2

[5] = tested on: C. difficile NR-49277; test: Toxin A and B production inhibition, ELISA; settings: C. difficile NR-49277, ¼×MIC and ½×MIC
Method: as §2

[6] = tested on: C. difficile HM-745; test: MIC and MBC, broth microdilution; settings: Clostridioides difficile, HM745
Method: (§3) Antibacterial activity of Diiodohydroxyquinoline against a wide panel of Clostridium difficile strains. […] MIC50 and MIC90 are the minimum concentration of each agent that inhibited growth of 50% and 90% of the tested isolates, respectively. The minimum bactericidal concentration (MBC) of these drugs was tested by plating 5 μL from wells with no growth onto BHIS agar plates. The MBC was categorized as the lowest concentration that reduced bacterial growth by 99.9% MIC50 and MIC90 are the minimum concentration of each agent that inhibited the growth of 50% and 90% of the tested isolates, respectively. The minimum bactericidal concentration (MBC) of these drugs was tested by plating 5 μL from wells with no growth onto BHIS agar plates. The MBC was categorized as the lowest concentration that reduced bacterial growth by 99.9% [29-31].

[7] = tested on: C. difficile P19; test: MIC and MBC, broth microdilution; settings: Clostridioides difficile, P19
Method: as §3

[8] = tested on: C. difficile ATCC 43255; test: MIC and MBC, broth microdilution; settings: Clostridioides difficile, ATCC43255
Method: as §3

[9] = tested on: C. difficile P20; test: MIC and MBC, broth microdilution; settings: Clostridioides difficile, P20
Method: as §3

[10] = tested on: C. difficile NR-49278; test: MIC and MBC, broth microdilution; settings: Clostridioides difficile, NR49278
Method: as §3

[11] = tested on: C. difficile P6; test: MIC and MBC, broth microdilution; settings: Clostridioides difficile, P6
Method: as §3

[12] = tested on: C. difficile P5; test: MIC and MBC, broth microdilution; settings: Clostridioides difficile, P5
Method: as §3

[13] = tested on: C. difficile I9; test: MIC and MBC, broth microdilution; settings: Clostridioides difficile, I9
Method: as §3

[14] = tested on: C. difficile ATCC 1801; test: MIC and MBC, broth microdilution; settings: Clostridioides difficile, ATCC1801
Method: as §3

[15] = tested on: C. difficile I13; test: MIC and MBC, broth microdilution; settings: Clostridioides difficile, I13
Method: as §3

[16] = tested on: C. difficile P15; test: MIC and MBC, broth microdilution; settings: Clostridioides difficile, P15
Method: as §3

[17] = tested on: C. difficile P30; test: MIC and MBC, broth microdilution; settings: Clostridioides difficile, P30
Method: as §3

[18] = tested on: C. difficile I10; test: MIC and MBC, broth microdilution; settings: Clostridioides difficile, I10
Method: as §3

[19] = tested on: C. difficile P3; test: MIC and MBC, broth microdilution; settings: Clostridioides difficile, P3
Method: as §3

[20] = tested on: C. difficile I11; test: MIC and MBC, broth microdilution; settings: Clostridioides difficile, I11
Method: as §3

[21] = tested on: C. difficile I6; test: MIC and MBC, broth microdilution; settings: Clostridioides difficile, I6
Method: as §3

[22] = tested on: C. difficile NR-49288; test: MIC and MBC, broth microdilution; settings: Clostridioides difficile, NR49288
Method: as §3

[23] = tested on: C. difficile NR-49285; test: MIC and MBC, broth microdilution; settings: Clostridioides difficile, NR49285
Method: as §3

CN[C@H](CC(C)C)C(=O)N[C@H]1C(=O)N[C@@H](CC(N)=O)C(=O)N[C@H]2C(=O)N[C@H]3C(=O)N[C@H](C(=O)N[C@H](C(=O)O)c4cc(O)cc(O)c4-c4cc3ccc4O)[C@H](O)c3ccc(c(Cl)c3)Oc3cc2cc(c3O[C@@H]2O[C@H](CO)[C@@H](O)[C@H](O)[C@H]2O[C@H]2C[C@](C)(N)[C@H](O)[C@H](C)O2)Oc2ccc(cc2Cl)[C@H]1O [Vancomycin, vancomycin]
0.125 µg/mL: MIC of vancomycin combined with DIHQ ([2]; C. difficile ATCC 9689)
No toxin inhibition: toxin inhibition (in words) [3] | toxin inhibition (in words) [4] | toxin inhibition (in words) [5]
0.5 µg/mL: MIC ([1]; Clostridioides difficile, I6, read-out: MIC alone) | MBC [10] | MBC [12] | MIC [12] | MBC [13] | MIC [13] | MBC [17] | MIC [17] | MIC [18] | MBC [21] | MIC [21] | MIC [22] | MBC [23] | MIC [23]
0.25 µg/mL: MIC [10]
0.06 µg/mL: MIC of vancomycin combined with DIHQ ([1]; C. difficile I6)
1 µg/mL: MIC ([2]; Clostridioides difficile, ATCC9689, read-out: MIC alone) | MBC [6] | MIC [6] | MBC [7] | MIC [7] | MBC [8] | MIC [8] | MBC [9] | MIC [9] | MBC [11] | MIC [11] | MBC [14] | MIC [14] | MBC [15] | MIC [15] | MBC [16] | MIC [16] | MBC [18] | MBC [19] | MIC [19] | MBC [20] | MIC [20] | MBC [22]
